Like-named read-outs stand apart in the source and are kept apart here.
Experiments:
[1] = tested on: myristoylation of SHMT2; assay: Click chemistry assay of SHMT2 myristoylation in HEK293T cells; type: cell-based; conditions: HEK293T cells, 0.25, 0.5 and 1 × 10^−6 M, 24 h
Method: For click chemistry experiment, HEK293T cells were first incubated with B6 for 24 h, followed by treatment with Alk14 for 4 h prior to harvest.
After the treatment mentioned in Section 4.2, HepG2 cells were lysed in 1% SDS lysis buffer (50 × 10^−3 M Tris‐HCl pH 8.0, 1% (w/v) SDS) with protease‐phosphatase inhibitor cocktail (ThermoFisher).^[ [47] ^] Click chemistry reactions were performed using commercially available reagents as per manufacturer instructions. 100 µg labeled protein was incubated with 50 µL of streptavidin magnetic beads overnight at 4 °C with end‐over‐end rotation. Following incubation, the beads were collected and rinsed three times with washing buffer. After the final wash, the supernatant was discarded, sample buffer was added to the beads and boiled at 95 °C for 5 min. The samples were further analyzed via western blotting using antibody specific for detection of endogenous SHMT2.

[2] = target: T1, HDAC6 (Homo sapiens, UniProt Q9UBN7); assay: In vitro HDACs inhibition fluorescence assay, HDAC6; type: biochemical; conditions: mean ± SEM
T1 construct: purchased BPS Bioscience
T1 sequence (Q9UBN7 whole entry): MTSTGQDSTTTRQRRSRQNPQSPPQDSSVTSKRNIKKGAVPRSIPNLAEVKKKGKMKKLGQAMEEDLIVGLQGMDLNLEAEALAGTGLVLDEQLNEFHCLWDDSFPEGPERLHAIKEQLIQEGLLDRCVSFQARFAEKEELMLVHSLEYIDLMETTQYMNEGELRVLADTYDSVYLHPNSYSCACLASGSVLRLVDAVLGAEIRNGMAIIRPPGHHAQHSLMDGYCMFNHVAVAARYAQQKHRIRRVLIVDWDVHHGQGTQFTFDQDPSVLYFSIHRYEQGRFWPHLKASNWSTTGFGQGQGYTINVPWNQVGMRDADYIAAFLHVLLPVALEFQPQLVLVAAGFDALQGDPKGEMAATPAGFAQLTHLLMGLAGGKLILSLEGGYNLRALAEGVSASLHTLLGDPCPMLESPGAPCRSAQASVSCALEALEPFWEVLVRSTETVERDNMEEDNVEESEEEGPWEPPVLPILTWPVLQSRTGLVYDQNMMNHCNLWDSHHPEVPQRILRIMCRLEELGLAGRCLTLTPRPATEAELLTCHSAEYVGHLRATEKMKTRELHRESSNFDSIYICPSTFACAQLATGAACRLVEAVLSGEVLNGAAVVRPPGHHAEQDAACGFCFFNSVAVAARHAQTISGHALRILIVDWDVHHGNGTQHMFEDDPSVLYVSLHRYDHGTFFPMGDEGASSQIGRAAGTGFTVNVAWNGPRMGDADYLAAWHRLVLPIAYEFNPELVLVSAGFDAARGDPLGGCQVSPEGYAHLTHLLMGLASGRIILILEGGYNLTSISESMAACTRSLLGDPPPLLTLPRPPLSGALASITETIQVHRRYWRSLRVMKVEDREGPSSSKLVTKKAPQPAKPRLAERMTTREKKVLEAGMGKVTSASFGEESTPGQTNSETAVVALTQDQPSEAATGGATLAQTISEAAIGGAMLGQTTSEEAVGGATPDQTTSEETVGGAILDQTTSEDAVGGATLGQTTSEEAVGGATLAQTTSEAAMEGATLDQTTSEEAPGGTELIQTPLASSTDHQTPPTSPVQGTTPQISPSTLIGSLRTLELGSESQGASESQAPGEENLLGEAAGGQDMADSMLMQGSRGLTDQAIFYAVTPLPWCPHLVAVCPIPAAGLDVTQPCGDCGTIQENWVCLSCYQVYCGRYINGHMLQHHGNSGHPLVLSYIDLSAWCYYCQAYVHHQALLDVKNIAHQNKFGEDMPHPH
Method: (§1) In Vitro HDACs Inhibition Fluorescence Assay: For the inhibitory activity against HDAC1‐10, enzymes were also procured from BPS Bioscience. The in vitro […] inhibition assays were conducted following the established method described previously.^[ [45] ^] The working concentrations of HDAC1‐10 were 4 × 10^−9 M. The fluorogenic substrate of HDAC1, 2, 3, and 6 was Boc‐Lys (acetyl)‐AMC, and the substrate of HDAC4, 5, 7, 8, 9, and 10 was Boc‐Lys (trifluoroacetyl) AMC. The developer solution consists of 30 mg mL^−1 trypsin and 5 × 10^−6 M TSA. A standing period of 30 min was sufficient before assessing the fluorescence intensity.

[3] = tested on: AML12 cells; assay: Mitochondrial activity (Mito-Tracker, Seahorse OCR) in FFA-treated AML12 cells; type: cell-based
[4] = target: T2, HDAC5 (Homo sapiens, UniProt Q9UQL6); assay: In vitro HDACs inhibition fluorescence assay, HDAC5; type: biochemical; conditions: mean ± SEM
T2 construct: purchased BPS Bioscience
T2 sequence (Q9UQL6 whole entry): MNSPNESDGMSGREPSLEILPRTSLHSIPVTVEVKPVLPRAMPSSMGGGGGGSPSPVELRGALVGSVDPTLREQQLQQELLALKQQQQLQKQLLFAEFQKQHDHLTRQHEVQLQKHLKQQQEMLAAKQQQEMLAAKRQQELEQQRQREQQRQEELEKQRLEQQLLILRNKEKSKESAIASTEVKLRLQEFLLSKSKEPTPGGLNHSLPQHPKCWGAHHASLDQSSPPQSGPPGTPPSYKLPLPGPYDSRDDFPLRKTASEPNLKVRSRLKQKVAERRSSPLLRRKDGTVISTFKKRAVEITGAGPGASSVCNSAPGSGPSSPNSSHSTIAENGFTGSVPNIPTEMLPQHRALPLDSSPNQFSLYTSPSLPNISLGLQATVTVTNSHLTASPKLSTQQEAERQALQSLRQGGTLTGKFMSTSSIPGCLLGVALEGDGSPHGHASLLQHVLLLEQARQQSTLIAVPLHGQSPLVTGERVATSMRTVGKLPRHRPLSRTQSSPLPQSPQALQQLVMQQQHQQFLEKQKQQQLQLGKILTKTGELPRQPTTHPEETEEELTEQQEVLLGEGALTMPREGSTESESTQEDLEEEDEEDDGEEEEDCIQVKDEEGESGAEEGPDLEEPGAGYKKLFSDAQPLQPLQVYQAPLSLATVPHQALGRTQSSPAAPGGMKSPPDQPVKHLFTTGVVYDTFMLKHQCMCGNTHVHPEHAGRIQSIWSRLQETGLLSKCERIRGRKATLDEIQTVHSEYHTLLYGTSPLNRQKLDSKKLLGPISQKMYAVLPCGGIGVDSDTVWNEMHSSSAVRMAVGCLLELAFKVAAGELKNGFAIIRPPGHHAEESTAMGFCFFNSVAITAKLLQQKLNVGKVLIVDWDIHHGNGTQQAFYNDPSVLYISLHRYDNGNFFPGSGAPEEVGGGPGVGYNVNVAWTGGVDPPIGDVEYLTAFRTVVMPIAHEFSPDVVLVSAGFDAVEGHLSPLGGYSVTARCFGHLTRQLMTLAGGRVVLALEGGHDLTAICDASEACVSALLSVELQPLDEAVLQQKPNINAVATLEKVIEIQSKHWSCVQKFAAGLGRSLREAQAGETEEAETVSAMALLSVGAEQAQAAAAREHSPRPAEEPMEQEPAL
Method: as §1

[5] = Pharmacokinetic study in ICR mice (i.v. and p.o.); type: in vivo; conditions: male, mouse, plasma; for MRT inf: read-out: MRT0-inf
Method: Pharmacokinetics study was performed by Medicilon Preclinical Research (Shanghai) LLC. Male ICR mice, which were purchased from Sino‐British SIPPR Lab Animal Ltd., Shanghai (25–30 g, 14 weeks of age), were fasted overnight before administration and resumed food 6 h after initial plasma sampling. Compound was dissolved in solution containing 10% DMAC, 40% PEG‐400, and 50% water and was delivered to three animals by intravenous bolus injection (i.v.) and oral gavage (p.o.) at a dose of 5 and 20 mg kg^−1 with a volume of 5 and 10 mL kg^−1, respectively. Blood samples were collected at the following time points: 5, 15, 30 min and 1, 2, 4, 6, 8, and 24 h post dose administration. The blood samples were taken via submandibular vein, 30 µL/time point.
Sample were placed in tubes containing K2‐EDTA and stored on ice until centrifuged. The blood samples were centrifuged at 6800 g for 6 min at 2–8 °C within 1 h after collected and stored frozen at ≈−80 °C. A 20 µL plasma sample was treated with 400 µL of methanol containing 10 ng mL^−1 IS to precipitate the protein. The mix was then vortexed for a minute and centrifuged at 18 000 g for 7 min. The resulting supernatant (400 µL) was transferred to a 96‐well plate, and an injection of 1 µL of this supernatant was used for the LC‐MS/MS analysis. The animal protocols used in this study were approved by the Preclinical R&D Unit of Medicilon Institutional Animal Care and Use Committee (IACUC) (26030‐21002) and operated in accordance with the Guide for the Care and Use of Laboratory Animals published by the National Institutes of Health (NIH).

[6] = target: T3, HDAC8 (Homo sapiens, UniProt Q9BY41); assay: In vitro HDACs inhibition fluorescence assay, HDAC8; type: biochemical
T3 construct: purchased BPS Bioscience
T3 sequence (Q9BY41 whole entry): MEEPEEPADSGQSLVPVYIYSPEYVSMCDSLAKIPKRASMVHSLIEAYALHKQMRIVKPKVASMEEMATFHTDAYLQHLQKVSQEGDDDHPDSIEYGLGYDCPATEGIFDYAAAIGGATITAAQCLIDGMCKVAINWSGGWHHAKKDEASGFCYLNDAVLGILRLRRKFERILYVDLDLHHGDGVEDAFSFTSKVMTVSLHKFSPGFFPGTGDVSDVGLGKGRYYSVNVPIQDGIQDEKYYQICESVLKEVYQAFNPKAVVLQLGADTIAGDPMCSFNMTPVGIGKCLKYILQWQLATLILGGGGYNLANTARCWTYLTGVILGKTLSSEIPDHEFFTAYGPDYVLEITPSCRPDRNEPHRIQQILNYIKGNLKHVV
Method: as §1

[7] = Tissue distribution study in ICR mice (i.p.); type: in vivo; conditions: i.p. at 5 mg/kg; 0.17, 0.5 and 1 h
Method: For the distribution experiment, compound was dissolved in solution containing 10% DMAC, 40% PEG‐400, and 50% water and was delivered to […] male ICR mice by intraperitoneal injection (i.p.) at a dose of 5 mg kg^−1. Then three […] were sacrificed for each 0.17, 0.5, and 1 h time period. Subsequently, the heart, liver, spleen, lung, and kidney were immediately collected. Blood samples were obtained via cardiac puncture and processed by centrifugation to retrieve the plasma fraction. Tissues were flushed with normal saline, dried, weighed, and then homogenized in 5 mL methanol. Tissue samples were centrifuged at 4000 g, and supernatants were stored in freezer at −80 °C before analyzing. 20 µL of the reconstitution solution were analyzed via LC‐MS system. The 8‐week‐old male C57BL/6J mice were provided by GemPharmatech (Nanjing, China).

[8] = ICR, po, 20 mg/kg, p.o. at 20 mg/kg

CCCCCOCCCCCNNC(=O)c1ccc(CNC(=O)c2ccccc2)cc1 [B6]
myristoylation of SHMT2 [1]: markedly increase
IC50 [2]: > 10 µM
FFA-inhibited mitochondrial activity (Mito-Tracker staining) [3]: ameliorated
mitochondrial stress test (OCR, basal and maximal respiration) ([3]; FFA): partially restored mitochondrial activity
IC50 [4]: > 10 µM
AUC(0-inf) [5, 8]: 3480 ng·h/mL
Cmax [5, 8]: 2610 ng/mL
half-life ([5]; iv, i.v. at 5 mg/kg): 3.8 h
clearance ([5]; iv, i.v. at 5 mg/kg): 39.5 ± 13.5 mL/min/kg
MRT inf ([5]; iv, i.v. at 5 mg/kg): 0.23 ± 0.02 h
bioavailability ([5]; oral, p.o. at 20 mg/kg vs i.v. at 5 mg/kg, read-out: oral bioavailability (F%)): 34.5%
MRT inf ([5]; po, p.o. at 20 mg/kg): 2.6 ± 0.8 h
half-life ([5]; po, p.o. at 20 mg/kg): 2.3 h
IC50 [6]: 5 µM
IC50 ([6]; mean ± SEM): 4.76 ± 0.159 µM
tissue distribution (blood, heart, liver, spleen, lung, kidney) [7]: highest concentrations observed in the liver and kidneys

— PMC12005767 (Advanced Science, 2025)
